System: SD rats
Experiment: Rat arterio-venous shunt thrombus formation model
Assay type: in vivo
Conditions: 100 U·kg^−1 i.v.
Protocol: 50 SPF grade male SD rats (provided by the laboratory animal center of Guangdong Medical College, 300-350 g body weight) were randomly divided into saline control group, positive control group (100 U·kg^−1 heparin sodium, Shanghai No. 1 Biochemical & Pharmaceutical Co. Ltd), and rNAPT-1 low dose (100 μg·kg^−1), middle dose (1 mg·kg^−1), high dose group (5 mg·kg^−1), 10 rats each group, respectively. These rats were anaesthetized with 10% chloral hydrate (250 mg/kg) by intraperitoneal injection. The right common carotid artery and left external jugular vein was exposed and dissected bluntly from the surrounding tissue after a surgical incision. One end of a polyethylene pipe (1.5 mm of diameter, 22 cm of length) with a 5 cm length of No. 4 operation suture in it and filled with 50 U/mL heparin solution was inserted into the right common carotid artery, and the other end was inserted into the left external […] vein. 5 min after tail intravenous injection of drugs, the artery clamp was opened, and blood flow from the right common carotid artery to the left external jugular vein through the polyethylene pipe. After 15 min of blood flow, the suture line was quickly removed and weighed. The net weight of thrombus is total weight minus suture weight; inhibition rate=(wet weight of thrombus of saline control group−wet weight of thrombus of administration group)/wet weight of thrombus of saline control group×100%.

**Q.** heparin sodium [reference compound] was tested. Which “wet weight of thrombus” value did it give?
**A.** 14.2 ± 3.6 mg

**Q.** What about the Inhibition rate % (vs saline control) of the same substance?
**A.** 74.3%

Reference: patent US9243044B2, “Anticoagulant polypeptide and applications thereof” (GUANGDONG MEDICAL COLLEGE, priority 2011, dated 2016)
